Data as given in US20250236599A1, “LIPID NANOPARTICLES FOR OLIGONUCLEOTIDE DELIVERY” (ZIPHIUS NV, priority 2021, published 2025).

What was measured:
[1] = tested on: expression of the luciferase saRNA; assay: In vivo bioluminescent imaging after intramuscular injection of LNP-formulated luciferase saRNA; details: 1 μg LNP-formulated luciferase saRNA intramuscularly, female SWISS mice
Procedure: (§1) Female SWISS mice (6 weeks old) were purchased from Janvier Laboratories (Paris, France) and kept in individually ventilated cages with access to food and water ad libitum. Mice were anesthetized with isoflurane (Zoetis, Louvain-La-Neuve, Belgium) (5% for induction and 2% for maintenance) and intramuscularly injected with a total of 1 μg in 100 μL Tris-HCL (50 μL per leg) LNP-formulated luciferase saRNA (for each group n=7). The expression of the luciferase induced bioluminescence was measured via non-invasive In vivo bioluminescent imaging (In vivo Imaging System (IVIS) Lumina III, Perkin Elmer, Waltham, Massachusetts, USA), 10 minutes after subcutaneous injection of […] of D-luciferin (GoldBio, Saint Louis, Missouri, USA, #LUCK-1G) were measured in day 0 (before injection), day 1, day 3, day 5, day 7, day 10, day 15 and day 20.

[2] = Weight evolution of the animals following administration of LNPs; assay type: in vivo; details: female SWISS mice
Procedure: as §1

[3] = LNP particle size, polydispersity index and charge by Zeta Sizer; assay type: physicochemical; details: LNP lipid:DOPE:Cholesterol:DMG-PEG 35:20:43.5:1.5, firefly luciferase saRNA; for Polydispersity Index (PI) / Z-average (nm): N/P approx. 40/1
Procedure: Cationic lipids, DOPE, Cholesterol and DMG-PEG lipid were solubilized in ethanol or DMSO at a molar ratio of 35:20:43.5:1.5 and a concentration of 100:25:20:25 μg/μL for C12-200 or 170:25:20:25 μg/μL for the comparator lipids. Lipid nanoparticles (LNP) were prepared by targeting an N/P ratio of approximately 40/1 with saRNA. Briefly, the firefly luciferase saRNA of approximately 9659 nucleotides was diluted to 0.5 mg/mL in 5 mM citrate buffer, pH 4.5. Microfluidic mixer (Ignite from Precision Nanosystems, California, USA) was used to mix the lipid solution with the saRNA aqueous solution at a ratio of about 1:3 (vol/vol) with total flow rates above 10 ml/min. The ethanol was then removed, and the external buffer replaced with 10 mM TRIS-HCL, PH 7.4, by dialysis. Finally, the lipid nanoparticles were filtered through a 0.2 μm pore sterile filter. Lipid nanoparticle particle size was 50-150 nm diameter and polydispersity index (PI) of 0.1-0.4 as determined by Zeta Sizer (Malvern Panalytical, UK). The charge of the formulation was also measured by Zeta Sizer and ranged between 20 to −20 mV.

[4] = saRNA loading / encapsulation efficiency, Quant-IT RiboGreen assay; assay type: physicochemical; details: LNP lipid:DOPE:Cholesterol:DMG-PEG 35:20:43.5:1.5, firefly luciferase saRNA
Procedure: The saRNA loading in LNP formulations was quantified using a Quant-IT RiboGreen assay (Thermo Fisher Scientific, Waltham, Massachusetts, USA) as previously described. 14 samples were diluted tenfold in 1x Tris HCL-EDTA (TE) buffer (10 mM Tris-HCL, 1 mM EDTA, pH 7.5) with or without 2% (v/v) Triton X-100 (Sigma-Aldrich, Saint Louis, Missouri, USA). Standard solutions were also prepared in 1xTE with or without 2% (v/v) Triton X-100 to account for any variation in fluorescence. The assay was performed according to the manufacturer's protocol. Samples were loaded on a black 96-well plate and analysed for fluorescence on a microplate reader (Tecan Infinite® 200 PRO) at an excitation of 485 nm and emission at 528 nm. Encapsulation efficiency was calculated between 80-100%.

[5] = Day 1, 1 μg LNP-formulated saRNA intramuscularly
[6] = Day 3, 1 μg LNP-formulated saRNA intramuscularly
[7] = Day 5, 1 μg LNP-formulated saRNA intramuscularly
[8] = Day 7, 1 μg LNP-formulated saRNA intramuscularly
[9] = Day 10, 1 μg LNP-formulated saRNA intramuscularly
[10] = Day 15, 1 μg LNP-formulated saRNA intramuscularly
[11] = Day 20, 1 μg LNP-formulated saRNA intramuscularly

SMILES	Weight ([2]; Day 0) [g]	Weight [2, 5] [g]	Weight [2, 6] [g]	Weight [2, 7] [g]	Weight [2, 8] [g]	Weight [2, 9] [g]	Weight [2, 10] [g]	Weight [2, 11] [g]	Zetapotential (mV) [3] [mV]	Polydispersity Index (PI) [3]	Z-average (nm) [3] [nm]	Encapsulation (%) [4] [%]	Bioluminescence expression of LNPs ([1]; Day 1)	Bioluminescence expression of LNPs ([1]; Day 3)	Bioluminescence expression of LNPs ([1]; Day 5)	Bioluminescence expression of LNPs ([1]; Day 7)	Bioluminescence expression of LNPs ([1]; Day 10)	Bioluminescence expression of LNPs ([1]; Day 15)	Bioluminescence expression of LNPs ([1]; Day 20)
CCCCCCCCC(CCCCCC)C(=O)OCCCCCCN(CCCCCCOC(=O)C(CCCCCC)CCCCCCCC)CCN(CCCCCCOC(=O)C(CCCCCC)CCCCCCCC)CCN1CCN(CCN(CCCCCCOC(=O)C(CCCCCC)CCCCCCCC)CCCCCCOC(=O)C(CCCCCC)CCCCCCCC)CC1 (centres unmarked) [Compound 9-31, ((2-(4-(2-((2-(bis(6-((2-hexyldecanoyl)oxy)hexyl)amino)ethyl) (6-((2-hexyldecanoyl)oxy)hexyl)amino)ethyl)piperazin-1-yl)ethyl)azanediyl)bis (hexane-6,1-diyl)bis(2-hexyldecanoate)]	27.70	26.17	28.46	27.66	28.29	28.27	29.76	30.90					3.10E+07	2.74E+08	5.31E+08	2.16E+08	2.22E+06	2.46E+05	2.71E+04
CCCCCCC(CCCC)C(=O)OCCCCCCN(CCCCCCOC(=O)C(CCCC)CCCCCC)CCN(CCCCCCOC(=O)C(CCCC)CCCCCC)CCN1CCN(CCN(CCCCCCOC(=O)C(CCCC)CCCCCC)CCCCCCOC(=O)C(CCCC)CCCCCC)CC1 (centres unmarked) [Compound 9-28, ((2-(4-(2-((2-(bis(6-((2-butyloctanoyl)oxy)hexyl)amino)ethyl) (6-((2-butyloctanoyl)oxy)hexyl)amino)ethyl)piperazin-1-yl)ethyl)azanediyl)bis(hexane-6,1-diyl)bis(2-butyloctanoate)]	28.36	27.19	29.44	29.17	29.37	29.39	31.43	32.46					1.01E+08	8.67E+08	9.45E+08	5.65E+08	2.08E+06	8.15E+04	3.35E+04
CCCCCCCCCCCCCCOC(=O)CCN(CCC(=O)OCCCCCCCCCCCCCC)CCN1CCN(CCN(CCC(=O)OCCCCCCCCCCCCCC)CCC(=O)OCCCCCCCCCCCCCC)CC1 [Comparator 1 (C1), reference compound]	26.56	25.99	27.21	27.59	27.09	27.17	29.43	30.11	9.07	0.16	70.96	99.03							

Second part, led by results:

Weight ([2]; Day 0) [g]	Weight [2, 5] [g]	Weight [2, 6] [g]	Weight [2, 7] [g]	Weight [2, 8] [g]	Weight [2, 9] [g]	Weight [2, 10] [g]	Weight [2, 11] [g]	Zetapotential (mV) [3] [mV]	Polydispersity Index (PI) [3]	Z-average (nm) [3] [nm]	Encapsulation (%) [4] [%]	SMILES	Bioluminescence expression of LNPs ([1]; Day 1)	Bioluminescence expression of LNPs ([1]; Day 3)	Bioluminescence expression of LNPs ([1]; Day 5)	Bioluminescence expression of LNPs ([1]; Day 7)	Bioluminescence expression of LNPs ([1]; Day 10)	Bioluminescence expression of LNPs ([1]; Day 15)	Bioluminescence expression of LNPs ([1]; Day 20)
30.01	30.06	30.43	29.87	30.30	31.23	32.13	32.23					CCCCCCCCC(CCCCCC)C(=O)OCCN(CCOC(=O)C(CCCCCC)CCCCCCCC)CCN1CCN(CCN(CCOC(=O)C(CCCCCC)CCCCCCCC)CCOC(=O)C(CCCCCC)CCCCCCCC)CC1 (centres unmarked) [Compound 9-35, ((piperazine-1,4-diylbis(ethane-2,1-diyl))bis(azanetriyl))tetrakis(ethane-2,1-diyl)tetrakis(2-hexyldecanoate)]	8.83E+05	9.99E+07	5.92E+07	6.45E+07	5.62E+07	6.82E+05	2.44E+05
29.19	29.19	29.43	29.21	30.44	31.06	31.26	31.77					CCCCCCC(CCCC)C(=O)NCCCCCCN(CCCCCCNC(=O)C(CCCC)CCCCCC)CCN1CCN(CCN(CCCCCCNC(=O)C(CCCC)CCCCCC)CCCCCCNC(=O)C(CCCC)CCCCCC)CC1 (centres unmarked) [Compound 9-41, N, N', N″, N″'-(((piperazine-1,4-diylbis(ethane-2,1-diyl))bis(azanetriyl))tetrakis(hexane-6,1-diyl))tetrakis(2-butyloctanamide)]							
28.61	27.17	28.62	28.98	28.97	29.23	30.16	31.23	9.59	0.19	94.03	97.46	CCCCCCCCCCC(O)CN(CCN1CCN(CCN(CC(O)CCCCCCCCCC)CC(O)CCCCCCCCCC)CC1)CCN(CC(O)CCCCCCCCCC)CC(O)CCCCCCCCCC (centres unmarked) [Compound C12-200, 1,1′-((2-(4-(2-((2-(bis (2-hydroxydodecyl)amino)ethyl) (2-hydroxydodecyl)amino)ethyl)piperazin-1-yl)ethyl)azanediyl) bis(dodecan-2-ol), reference compound]							
30.11	29.54	29.41	29.19	30.31	30.51	31.09	32.37					CCCCCCC(CCCC)C(=O)NCCCCCCN(CCCCCCNC(=O)C(CCCC)CCCCCC)CCN(CCCCCCNC(=O)C(CCCC)CCCCCC)CCN1CCN(CCN(CCCCCCNC(=O)C(CCCC)CCCCCC)CCCCCCNC(=O)C(CCCC)CCCCCC)CC1 (centres unmarked) [Compound 9-40, N,N'-(((2-(4-(2-((2-(bis(6-(2-butyloctanamido)hexyl)amino)ethyl) (6-(2-butyloctanamido)hexyl)amino)ethyl)piperazin-1-yl)ethyl)azanediyl)bis(hexane-6,1-diyl))bis(2-butyloctanamide)]	6.07E+07	6.79E+08	1.14E+09	8.88E+08	2.00E+07	1.32E+06	2.64E+05
